Eight compounds from patent publication US20240282401A1, “METHODS FOR ENZYME ENGINEERING” (The University of Manchester, priority 2021, published 2024) can be followed below.

For this assay, the target named is T1, HDNO D6 (Paenarthrobacter nicotinovorans, UniProt P08159, A237T/A42S/E349L/E351D/N413H/V430A).
T1 construct: This full-length gene design was then used to introduce genetic diversity to create a library; His tag (N); made in house; host or cells: E. coli BL21 (DE3)
Description: Biotransformation turnover frequencies of amine substrates (GC-FID). The assay is classed as biochemical, Arthrobacter nicotinovorans. Conditions: for TOF: HDNO D6 0.05 mg mL^−1, 10 mM substrate, 30° C., pH 8 100 mM buffer, conversions after 10 min; for Fold increase vs D2: TOF of HDNO D6 over HDNO D2 (0.2 mg ml^−1). Here is the method:
Chiral normal phase HPLC was performed on an Agilent HPLC system (G1379A degasser, G1312A binary pump, a G1367A well plate autosampler unit, a G1316A temperature-controlled column compartment and a G1315C diode array detector) (Agilent Technologies Inc., Santa Clara, CA) equipped with a CHIRALCEL OD-H (250 mm length, 4.6 mm diameter, 5 μm particle size) analytical column (Daicel Corp., Osaka, Japan). The typical injection volume was 10 μL and chromatograms were monitored at 265 nm. Gas chromatographic (GC) analysis was performed on an Agilent 6850 GC (Agilent Technologies Inc., Santa Clara, CA) with a flame ionization detector and autosampler equipped with a HP-1 column of length 30 m, 0.32 mm inner diameter and 0.25 μm film thickness (Agilent Technologies Inc., Santa Clara, CA).
A typical 500 μL reaction mixture in a 2 mL tube contained 10 mM amine, 0.05 to 1 mg mL^−1 of purified HDNO variant in pH 8 100 mM NaPi buffer. Reactions were incubated at 30° C. with 250 r.p.m shaking for different reaction times, after which they were quenched by the addition of 50 μL of 10 M NaOH and extracted twice with 500 μL tert-butyl methyl ether (HPLC grade, Merck Life Science UK Limited, Gillingham). The organic fractions were combined and dried over anhydrous MgSO4 and analysed by GC-FID (conversions) or HPLC (enantiomeric ratios) on a chiral stationary phase (see Chromatography section for details). Turnover frequencies (TOF, min^−1) were calculated as the moles of product formed/moles of enzyme min^−1 based on conversions obtained by GC-FID analysis (see Chromatography method). The same response factor was considered for both substrate and product.

T1 sequence (P08159 other isoform, or with tags, fused parts or gaps A42S/A237T/E349L/E351D/N413H/V430A/C432S): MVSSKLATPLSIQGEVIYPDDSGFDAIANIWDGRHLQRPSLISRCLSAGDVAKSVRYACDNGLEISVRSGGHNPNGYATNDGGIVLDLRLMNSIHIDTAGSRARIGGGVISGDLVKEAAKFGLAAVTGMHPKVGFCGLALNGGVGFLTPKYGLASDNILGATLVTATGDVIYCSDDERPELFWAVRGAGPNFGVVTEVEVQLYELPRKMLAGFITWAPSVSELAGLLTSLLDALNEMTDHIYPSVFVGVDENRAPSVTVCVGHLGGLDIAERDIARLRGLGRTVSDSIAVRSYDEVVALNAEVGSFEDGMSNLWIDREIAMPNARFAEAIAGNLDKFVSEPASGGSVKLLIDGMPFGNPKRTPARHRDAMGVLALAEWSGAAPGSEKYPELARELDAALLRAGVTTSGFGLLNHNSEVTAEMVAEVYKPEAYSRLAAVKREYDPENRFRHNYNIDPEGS

With `CN(C)c1ccc(C2CCCN2)cc1` (centres unmarked) [Mutant 1b, 2-(4-dimethylaminophenyl)-pyrrolidine], the TOF was found to be 181.2 min⁻¹ and the “Fold increase vs D2” value is reported as 10.2 fold.

On to `C1CC2CNCC2C1` (centres unmarked) [Mutant 1i], for which the TOF entry is given as “no measurable activity”.

In turn, `Clc1cccc(C2CCCN2)c1` (centres unmarked) [Mutant 1d] yielded a TOF of 135.6 min⁻¹.

For `c1ccc([C@H]2CCCN2)cc1` [Mutant 1a, (R)-2-phenylpyrrolidine], the TOF worked out at 79.8 min⁻¹ and the “Fold increase vs D2” value came out at 5.8 fold.

As for `c1ccc(CCC2CCCN2)cc1` (centres unmarked) [Mutant 1c], the TOF came to 28.8 min⁻¹ and the “Fold increase vs D2” value is 5.9 fold.

As to `c1ccc(CCC2CCCCN2)cc1` (centres unmarked) [Mutant 1f], the TOF is 8.4 min⁻¹.

Consider `CC(N)c1ccccc1` (centres unmarked) [Mutant 1g], for which the TOF amounted to 0.66 min⁻¹.

For the compound `CCCCC[C@@H](C)N` [Mutant 1h], the TOF worked out at 0.42 min⁻¹.
